Results published in US11214803B2, “Modulators of YAP1 expression” (Ionis Pharmaceuticals, Inc., priority 2019, dated 2022).
Strand notation (5' to 3'): a small letter for the sugar, then the base; units joined by * are phosphorothioate-linked, units joined directly phosphodiester-linked; [ ] holds rarer units or linkages, { } end groups; capitals alone tell only the bases. k = constrained ethyl (cEt); [5mC] = 5-methylcytosine; d = 2'-deoxy (DNA)

Test system: Yap1 mRNA
Assay: Antisense inhibition of human Yap1 in A-431 cells by cEt gapmers, single dose (Example 3, RTS36584)
Type: cell-based
How it was run: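 Single-dose free-uptake screen of 3-10-3 cEt gapmers in A-431 cells at 2,000 nM over about 48 h. Values are % untreated control Yap1 mRNA.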

[1] = Table 10, A-431 cells, 5,000 cells per well, free uptake, 2,000 nM oligonucleotide, approx. 48 hours, primer probe set RTS36584, Yap1 mRNA normalized to RIBOGREEN, percent of untreated control
[2] = Table 13, A-431 cells, 5,000 cells per well, free uptake, 2,000 nM modified oligonucleotide, approx. 48 hours, RTS36584, normalized to RIBOGREEN, Yap1 mRNA relative to untreated control cells
[3] = Table 27, Yap1 mRNA by 3-10-3 cEt gapmers targeting SEQ ID NO.: 1, and 2, percent of untreated control
[4] = Table 9, A-431 cells, 5,000 cells per well, free uptake, 2,000 nM, approximately 48 hours, RTS36584, normalized to RIBOGREEN, Yap1 mRNA relative to untreated control cells
[5] = Table 29, Yap1 mRNA as percent of untreated control, 3-10-3 cEt gapmers targeting SEQ ID NO.: 1, and 2
[6] = Table 12, A-431 cells, 5,000 cells per well, free uptake, 2,000 nM modified oligonucleotide, approx. 48 hours, RTS36584, normalized to RIBOGREEN, Yap1 mRNA relative to untreated control cells
[7] = Table 8, A-431 cells, 5,000 cells per well, free uptake, 2,000 nM, approximately 48 hours, RTS36584, normalized to RIBOGREEN, Yap1 mRNA relative to untreated control cells
[8] = Table 11, A-431 cells, 5,000 cells per well, free uptake, 2,000 nM oligonucleotide, approx. 48 hours, primer probe set RTS36584, Yap1 mRNA normalized to RIBOGREEN, percent of untreated control
[9] = Table 35, Yap1 mRNA as percent of untreated control, 3-10-3 cEt gapmers targeting SEQ ID NO: 1 and 2, single dose
[10] = Table 34, Yap1 mRNA as percent of untreated control, 3-10-3 cEt gapmers targeting SEQ ID NO: 1 and 2, single dose

Substance: 958462 (antisense kA*k[5mC]*kT*dG*dG*d[5mC]*dT*dA*d[5mC]*dG*d[5mC]*dA*dG*kG*kG*k[5mC]) [Compound 958462]
- YAP1 (% UTC) [1]: 46 % UTC

Substance: 958810 (kT*kT*kA*dT*dA*dT*dA*d[5mC]*dG*dG*dG*dA*dA*kA*kA*kT; antisense) [Compound 958810]
- YAP1 (% UTC) [2]: 47 % UTC

Substance: 1075245 (k[5mC]*k[5mC]*kT*dA*dA*dT*dA*dT*dG*d[5mC]*dT*dA*dT*kT*kG*kT; antisense) [compound 1075245]
- YAP1 (% UTC) [3]: 34 % UTC

Substance: 958646 (kT*kA*kT*dT*dA*dT*dA*dT*dG*dG*d[5mC]*dT*dA*kA*kG*k[5mC]; antisense) [Compound 958646]
- YAP1 (% UTC) [4]: 26 % UTC

Substance: 1075311 (antisense kA*kG*kT*dA*dA*dT*dT*dA*dA*dA*d[5mC]*dG*dA*kA*kA*k[5mC]) [compound 1075311]
- YAP1 (% UTC) [5]: 100 % UTC

Substance: 1074959 (antisense kT*kT*kA*dA*d[5mC]*d[5mC]*d[5mC]*dG*dG*dG*dT*dT*dT*kT*kT*kG) [compound 1074959]
- YAP1 (% UTC) [5]: 128 % UTC

Substance: 958539 (kT*k[5mC]*kT*dA*dT*d[5mC]*d[5mC]*dA*dG*dG*dG*dT*d[5mC]*kA*kA*kT; antisense) [Compound 958539]
- YAP1 (% UTC) [6]: 11 % UTC

Substance: 958607 (antisense k[5mC]*kA*kA*d[5mC]*dA*dT*dG*d[5mC]*dT*dT*dG*d[5mC]*dG*kA*kG*kG) [Compound 958607]
- YAP1 (% UTC) [1]: 11 % UTC

Substance: 958786 (antisense kT*kA*kT*dG*dT*d[5mC]*d[5mC]*dT*dA*d[5mC]*dT*dT*dT*k[5mC]*k[5mC]*k[5mC]) [Compound 958786]
- YAP1 (% UTC) [4]: 10 % UTC

Substance: 958365 (antisense kG*k[5mC]*k[5mC]*dA*dT*dG*dT*dT*dG*dT*dT*dG*dT*k[5mC]*kT*kG) [Compound 958365]
- YAP1 (% UTC) [7]: 34 % UTC

Substance: 958763 (antisense k[5mC]*kA*k[5mC]*dA*dA*dT*dA*d[5mC]*dA*dA*dG*dA*dT*kG*k[5mC]*kA) [Compound 958763]
- YAP1 (% UTC) [8]: 3 % UTC

Substance: 958456 (antisense kG*kG*k[5mC]*d[5mC]*dA*dG*dA*dG*dA*d[5mC]*dT*dA*d[5mC]*kT*k[5mC]*k[5mC]) [Compound 958456]
- YAP1 (% UTC) [4]: 90 % UTC

Substance: 1076405 (antisense kT*kT*kA*dT*dT*dT*dA*dA*dG*dA*d[5mC]*d[5mC]*dT*kG*kG*kT) [compound 1076405]
- YAP1 (% UTC) [9]: 12 % UTC

Substance: 958720 (antisense kG*kT*k[5mC]*dT*dA*d[5mC]*dT*dA*dG*dA*dG*d[5mC]*dT*kG*k[5mC]*k[5mC]) [Compound 958720]
- YAP1 (% UTC) [2]: 12 % UTC

Substance: 958592 (k[5mC]*kG*kT*dA*dA*dG*dA*dT*d[5mC]*dA*dA*dA*dG*k[5mC]*kA*k[5mC]; antisense) [Compound 958592]
- YAP1 (% UTC) [1]: 12 % UTC

Substance: 958790 (antisense kG*kA*kA*dA*dA*dG*dA*d[5mC]*dG*dA*d[5mC]*dA*d[5mC]*kA*kG*kT) [Compound 958790]
- YAP1 (% UTC) [2]: 68 % UTC

Substance: 958566 (kA*k[5mC]*k[5mC]*dT*dA*dT*dG*dA*dA*d[5mC]*dT*dA*dT*kT*kA*kT; antisense) [Compound 958566]
- YAP1 (% UTC) [4]: 18 % UTC

Substance: 958518 (k[5mC]*k[5mC]*kA*d[5mC]*dA*dG*dT*dA*dA*dT*dA*dG*d[5mC]*kT*k[5mC]*kT; antisense) [Compound 958518]
- YAP1 (% UTC) [8]: 1 % UTC

Substance: 958395 (antisense k[5mC]*kT*kA*dA*d[5mC]*dA*dA*d[5mC]*d[5mC]*dT*dG*dG*dT*kT*kT*kG) [Compound 958395]
- YAP1 (% UTC) [7]: 114 % UTC

Substance: 958594 (k[5mC]*kT*k[5mC]*dT*dT*dA*dG*dG*dT*d[5mC]*dT*d[5mC]*d[5mC]*kT*kT*k[5mC]; antisense) [Compound 958594]
- YAP1 (% UTC) [6]: 8 % UTC

Substance: 1075214 (kA*kA*k[5mC]*dA*dA*dT*dA*dA*dA*dG*dG*dG*dT*k[5mC]*k[5mC]*kT; antisense) [compound 1075214]
- YAP1 (% UTC) (Table 28, Yap1 mRNA as percent of untreated control, 3-10-3 cEt gapmers targeting SEQ ID NO.: 1, and 2): 45 % UTC

Substance: 1074196 (antisense kG*k[5mC]*k[5mC]*d[5mC]*dG*dG*dG*dT*d[5mC]*d[5mC]*dG*dG*dA*k[5mC]*kG*kG) [compound 1074196]
- YAP1 (% UTC) [10]: 99 % UTC

Substance: 958742 (antisense kA*kG*k[5mC]*dA*dA*dT*dA*dT*dG*dG*dT*dA*dT*kT*kA*kG) [Compound 958742]
- YAP1 (% UTC) [1]: 4 % UTC

Substance: 1075764 (k[5mC]*kT*kT*d[5mC]*dA*dA*dG*dG*dA*dA*dG*dG*dT*kG*k[5mC]*kT; antisense) [compound 1075764]
- YAP1 (% UTC) [10]: 103 % UTC

Substance: 1075119 (kA*kG*kG*dG*dA*dA*dT*dA*dT*dG*dT*dT*dA*kA*kT*k[5mC]; antisense) [compound 1075119]
- YAP1 (% UTC) [5]: 8 % UTC

Substance: 1075116 (k[5mC]*kT*kT*dA*dA*d[5mC]*dA*dT*dT*dT*dA*dA*dT*kG*kG*k[5mC]; antisense) [compound 1075116]
- YAP1 (% UTC) (Table 26, Yap1 mRNA by 3-10-3 cEt gapmers targeting SEQ ID NO.: 1, and 2, percent of untreated control): 15 % UTC

Substance: 1075765 (k[5mC]*kT*kT*dA*dA*dG*dG*d[5mC]*dA*dG*d[5mC]*dT*d[5mC]*kT*kA*kT; antisense) [compound 1075765]
- YAP1 (% UTC) [9]: 58 % UTC

Substance: 1075821 (k[5mC]*kT*kT*dA*dA*d[5mC]*dT*dT*d[5mC]*d[5mC]*d[5mC]*dA*d[5mC]*kT*k[5mC]*kG; antisense) [compound 1075821]
- YAP1 (% UTC) [3]: 22 % UTC

Substance: 958735 (antisense kA*kG*k[5mC]*dA*dA*dT*d[5mC]*dT*dT*dG*dT*dG*dG*kA*kT*k[5mC]) [Compound 958735]
- YAP1 (% UTC) [2]: 7 % UTC

Substance: 958387 (antisense kG*kA*kG*dG*d[5mC]*dG*d[5mC]*dG*d[5mC]*dG*d[5mC]*dA*dT*kT*kG*kT) [Compound 958387]
- YAP1 (% UTC) [7]: 131 % UTC

Substance: 1075668 (antisense kA*kA*kT*dT*dA*dT*dT*dG*dG*dT*dG*dA*d[5mC]*kA*k[5mC]*kT) [compound 1075668]
- YAP1 (% UTC) [10]: 80 % UTC

Substance: 1074253 (antisense kT*k[5mC]*kT*dG*dG*dG*dA*d[5mC]*dA*dG*d[5mC]*dA*dT*kG*kG*k[5mC]) [compound 1074253]
- YAP1 (% UTC) [3]: 11 % UTC

Substance: 958651 (kA*kA*k[5mC]*dT*dA*dA*dA*dG*dA*dG*dG*dA*d[5mC]*kT*kT*kA; antisense) [Compound 958651]
- YAP1 (% UTC) [4]: 62 % UTC

Substance: 958801 (antisense k[5mC]*kG*k[5mC]*dT*dA*dG*d[5mC]*dA*d[5mC]*dG*d[5mC]*dG*d[5mC]*kG*k[5mC]*kT) [Compound 958801]
- YAP1 (% UTC) [4]: 131 % UTC

Substance: 958605 (antisense k[5mC]*kT*k[5mC]*dA*dG*dA*dT*dG*dT*dA*d[5mC]*d[5mC]*dA*kA*k[5mC]*kG) [Compound 958605]
- YAP1 (% UTC) [2]: 7 % UTC

Substance: 1076109 (k[5mC]*kT*kT*dA*dA*dA*dT*dG*dA*d[5mC]*d[5mC]*dA*dA*kT*kT*k[5mC]; antisense) [compound 1076109]
- YAP1 (% UTC) [3]: 23 % UTC

Substance: 958788 (antisense k[5mC]*kT*kG*dG*dG*d[5mC]*dA*dA*dA*dG*dT*dT*d[5mC]*k[5mC]*kT*k[5mC]) [Compound 958788]
- YAP1 (% UTC) [8]: 54 % UTC

Substance: 958569 (kA*kG*k[5mC]*d[5mC]*dT*dT*dA*dG*dA*dG*dT*d[5mC]*dA*kA*kT*kT; antisense) [Compound 958569]
- YAP1 (% UTC) [6]: 3 % UTC

Substance: 1074925 (antisense kG*k[5mC]*k[5mC]*dT*dG*d[5mC]*dA*dA*dA*dT*dA*dG*dG*kA*kG*kA) [compound 1074925]
- YAP1 (% UTC) [3]: 94 % UTC

Substance: 958484 (antisense kG*k[5mC]*kA*dG*d[5mC]*dA*dA*dT*dG*dG*dA*d[5mC]*dA*kA*kG*kG) [Compound 958484]
- YAP1 (% UTC) [6]: 2 % UTC
